Assays:
D425-Med cells [1] = test: In vivo combinatorial treatment with Vincristine, orthotopic medulloblastoma model; parameters: species or system nude mice
Procedure: We then measured the combinatorial treatment with (S)-(1-(4-((4-methoxybenzyl)amino)-1,3,5-triazin-2-yl)piperidin-3-yl)methanol HCl salt compound and Vincristine in vivo. To this end, D425-Med cells (1 ×10^5 cells) were implanted into the fourth ventricle of nude mice (n=18). After 7 days from tumour implantation (i.e., once the tumours were established) the mice (grouped according to their bioluminescence values) were injected intraperitoneally with 0.3 mg/kg/day Vincristine alone or in combination with 6 mg/kg/day (S)-(1-(4-((4-methoxybenzyl)amino)-1,3,5-triazin-2-yl)piperidin-3-yl)methanol HCl salt compound for 18 days (Figures 9E).

D425-MED cells [2] = test: Real-time cell proliferation assay (cell index, xCELLigence); format: cell-based, human; details: D425-Med cells
Procedure: J774A.1 murine macrophages (referred to as J774 cells; ATCC: #TIB-67), MMTV-Prune1-Wnt1 cells were grown in high-glucose Dulbecco's modified Eagle's medium (DMEM; Euroclone) supplemented with 20% (v/v) FBS, 2 mM L-glutamine, and 1% (v/v) antibiotics (Pen/Strep). D425-MED, D425-MED-Luc and […] cells were grown in high-glucose Dulbecco's modified Eagle's medium (DMEM; Euroclone) and Iscove's Modified Dulbecco's Medium (IMDM; Sigma) at 1:1 (v/v) dilution supplemented with 20% (v/v) FBS, 2 mM L-glutamine, 1% non-essential amino acid solution (M7145; Sigma-Aldrich/Merck), and 1% (v/v) antibiotics (Pen/Strep). The cells were grown at 37 °C in a humidified atmosphere of 95% air, 5% CO2 (v/v).
D425.MED and MMTV-Prune1/Wnt1 cells were plated and treated with increasing concentrations of LEO-AA7.5(S)T for 24 hours. Water-treated cells were used as negative control for the experiments.
Cellular proliferation rates were determined with the xCELLigence system (Roche). D425-MED, MATH-Prune1/TP53-/- and MMTV-Prune1/Wnt1 cells (8 × 10^3) were treated with increasing concentrations of LEO-AA7.5(S)T, harvested, and then added to a single well of an xCELLigence E-plate 16. The proliferation rates were determined at 2-min intervals by measuring the impedance changes across the electrodes at the bottoms of the wells. These cell index values were calculated by the xCELLigence RTCA software. with vehicle-treated cells were the negative control. Impedance was measured every 2 min over 24 hours. The IC50 values were calculated through nonlinear regression analysis performed with Graph Pad Prism 9 ([inhibitor] vs. response (three parameters). Data are means ± SD of three independent experiments.

MATH1-Prune1/ TP53-/- = test: Orthotopic implantation of MATH1-Prune1/TP53-/- cells in immunocompetent syngeneic mice, survival analysis; format: in vivo, FVB WT mice
Procedure: MATH1-Prune1/ TP53-/- were implanted into the right cerebellar hemisphere of female (n.24) immunocompetent syngeneic mice model (5 weeks old, strain: FVB WT). to establish intracerebellar MATH1-Prune1/ TP53-/- models, mice were anaesthetised with Ketamine/ Xylazine (87.5 mg/kg, 12.5 mg/kg, respectively). The mice were then placed in a stereotactic frame by hooking their incisors onto the frame hold. […] The mice were monitored daily for development of potential neurological deficits. For LEO-AA7.5(S)T in-vivo treatment, starting after 10 days from tumour implantation (i.e., once the tumours were established) the mice (grouped according to body weight values) were injected intraperitoneally with LEO-AA7.5(S)T at 6 mg/kg/day, or with water as the vehicle for the control group. mouse body weights were measured at the indicated time points. Mouse survival was closely monitored during the entire experimental period.

Caspase 3 = Caspase 3 activity assay; format: cell-based, murine; details: MATH1-Prune1/TP53-/- cells
Procedure: MATH1-Prune1/TP53-/- cells (3×10^4) were plated in 96-well plate and treated with different doses of Vincristine (i.e., 0.3 nM or 0.03 nM) alone or combined to 10 µM LEO-AA7.5(S)T. Vehicle- (0.01% DMSO) treated cells were used as negative controls. Staurosporine-treated cells (1 µM) were used as positive controls of the assays. The assay was performed by using Caspase-3 Activity Assay Kit (#5723, Cell Signaling), by following the manufacture's instruction. Briefly, after 24 hours from the treatment started, cell medium was removed and 30 ul of cell lysis buffer (PI-7018, Cell Signaling) were added. The plate was then incubated for 5 minutes on ice. Later, 25 ul of cell lysate were mixed with 200 ul substrate solution B (#11734S, Cell Signaling) in a black 96 well plate. Fluorescence was detected by using a multimode plate reader (Enspire, 2300, PerkinElmer). The positive control AMC (25 µl, #11735S, Cell Signaling) mixed with 200 ul 1X assay buffer A (#11736S, Cell Signaling) was used as positive control of fluorescence.

SMILES: COc1ccc(CNc2ncnc(N3CCC[C@H](CO)C3)n2)cc1.Cl [LEO-AA7.5(S)T, (S)-(1-(4-((4-methoxybenzyl)amino)-1,3,5-triazin-2-yl)piperidin-3-yl)methanol HCl salt]
- intracranial tumor growth, combinatorial treatment with Vincristine (D425-Med cells [1]; 6 mg/kg/day plus 0.3 mg/kg/day Vincristine intraperitoneally for 18 days): significantly decreased
- angiogenesis (IVISense Integrin Receptor 680 Fluorescent Probe) (D425-Med cells [1]; combinatorial treatment with Vincristine): decreased levels of angiogenesis
- cell proliferation rate, combination with Vincristine (D425-MED cells [2]; 10 µM added to 10 nM or 1 nM Vincristine): reduces the cell proliferation rate
- inhibition of cell proliferation, combination with Seclidemstat [SP-2577] (D425-MED cells [2]; 10 µM plus 22.5 µM Seclidemstat): enhance the inhibition of cell proliferation
- half maximal inhibitory concentration (IC50) for the inhibition of cell proliferation index (D425-MED cells [2]; impedance every 2 min over 24 h): 71 µM
- toxic effects (body weight) (MATH1-Prune1/ TP53-/-; 6 mg/kg/day intraperitoneally): no toxic effects
- overall survival (MATH1-Prune1/ TP53-/-; 6 mg/kg/day intraperitoneally from day 10 after implantation): improved overall survival
- Caspase 3 activation, combination with Vincristine (Caspase 3; 10 µM plus 0.03 nM Vincristine): promotes Caspase 3 activation
- Caspase 3 activation, single agent (Caspase 3; Vincristine 0.3 nM and 0.03 nM, LEO-AA7.5(S)T 10 µM, 24 hours): does not induce apoptotic action
